Test results taken from ChEMBL document CHEMBL3132850, “5-Nor carbocyclic nucleosides: unusual nonnucleoside inhibitors of HIV-1 reverse transcriptase” (Medchemcomm, 2013).
Active and inactive are the calls of the source. The calls are words filed in the database; no cut-off is given here.

Assays:
Coxsackievirus B4 = assay: Antiviral activity against Coxsackievirus B4; format: functional, organism-based
[1] = test system: Human immunodeficiency virus 1; assay: Antiviral activity against HIV1 3B infected in human CEM cells assessed as reduction of giant cell formation after 4 days by microscopic analysis; format: functional, organism-based; settings: Human immunodeficiency virus 1, 3B, CCRF-CEM, 96 h
[2] = target: Human immunodeficiency virus type 1 reverse transcriptase (Human immunodeficiency virus 1, UniProt Q72547, G190A); assay: Inhibition of HIV1 reverse transcriptase G190A mutant expressed in Escherichia coli BL21 (DE3) using [alpha-32P]dATP after 30 mins by liquid scintillation counting
Influenza B virus = assay: Antiviral activity against Influenza B virus; format: functional, organism-based
Vaccinia virus = assay: Antiviral activity against Vaccinia virus; format: functional, organism-based; settings: Orthopoxvirus vaccinia
[3] = target: Human immunodeficiency virus type 1 reverse transcriptase (Human immunodeficiency virus 1, UniProt Q72547, V106A); assay: Inhibition of HIV1 reverse transcriptase V106A mutant expressed in Escherichia coli BL21 (DE3) using [alpha-32P]dATP after 30 mins by liquid scintillation counting
[4] = target: Human immunodeficiency virus type 1 reverse transcriptase (Human immunodeficiency virus 1, UniProt Q72547, K103N); assay: Inhibition of HIV1 reverse transcriptase K103N mutant expressed in Escherichia coli BL21 (DE3) using [alpha-32P]dATP after 30 mins by liquid scintillation counting
[5] = test system: Vesicular stomatitis virus; assay: Antiviral activity against Vesicular stomatitis virus; format: functional, organism-based
Feline coronavirus = assay: Antiviral activity against Feline coronavirus; format: functional, organism-based
Influenza A virus = assay: Antiviral activity against Influenza A virus H1N1; format: functional, organism-based
[6] = test system: Mammalian orthoreovirus 1; assay: Antiviral activity against Reovirus-1; format: functional, organism-based
[7] = test system: Human immunodeficiency virus 1; assay: Ratio of IC50 for HIV1 wild type reverse transcriptase to IC50 for HIV1 reverse transcriptase L100I mutant
Punta Toro virus = assay: Antiviral activity against Punta Toro virus; format: functional, organism-based
Influenza A virus H3N2 = assay: Antiviral activity against Influenza A virus H3N2; format: functional, organism-based
Human respirovirus 3 = assay: Antiviral activity against Parainfluenza virus 3; format: functional, organism-based
Sindbis virus = assay: Antiviral activity against Sindbis virus; format: functional, organism-based
[8] = test system: Respiratory syncytial virus; assay: Antiviral activity against Respiratory syncytial virus; format: functional, organism-based
Human alphaherpesvirus 1 = assay: Antiviral activity against Herpes simplex virus-1 KOS; format: functional, organism-based
[9] = Solubility of the compound in 10% DMSO up to 50 uM; format: physicochemical
Human alphaherpesvirus 2 = assay: Antiviral activity against Herpes simplex virus-2 G; format: functional, organism-based; settings: strain G
Human alphaherpesvirus 3 = assay: Antiviral activity against Varicella-zoster virus; format: functional, organism-based
[10] = target: Human immunodeficiency virus type 1 reverse transcriptase (Human immunodeficiency virus 1, UniProt Q72547, K103N/Y181C); assay: Inhibition of HIV1 reverse transcriptase K103N/Y181C mutant expressed in Escherichia coli BL21 (DE3) using [alpha-32P]dATP after 30 mins by liquid scintillation counting
[11] = target: Human immunodeficiency virus type 1 reverse transcriptase (Human immunodeficiency virus 1, UniProt Q72547, L100I); assay: Inhibition of HIV1 reverse transcriptase L100I mutant expressed in Escherichia coli BL21 (DE3) using [alpha-32P]dATP after 30 mins by liquid scintillation counting
[12] = target: Human immunodeficiency virus type 1 reverse transcriptase (Human immunodeficiency virus 1, UniProt Q72547); assay: (§1) Inhibition of HIV1 wild type reverse transcriptase expressed in Escherichia coli BL21 (DE3) using [alpha-32P]dATP after 30 mins by liquid scintillation counting
[13] = target: Human immunodeficiency virus type 1 reverse transcriptase (Human immunodeficiency virus 1) (UniProt Q72547); assay: as §1
[14] = target: Human immunodeficiency virus type 1 reverse transcriptase (Human immunodeficiency virus 1, UniProt Q72547, Y181C); assay: Inhibition of HIV1 reverse transcriptase Y181C mutant expressed in Escherichia coli BL21 (DE3) using [alpha-32P]dATP after 30 mins by liquid scintillation counting
[15] = Cytotoxicity against human CEM cells after 3 days; format: cell-based; settings: CEM cells (CCRF-CEM)

Structure (SMILES): Cc1cc(C)cc(Cn2c(=O)ccn(C3C=CC(OC(=O)c4ccccc4)C3)c2=O)c1 (racemic)
- Activity (Coxsackievirus B4): inactive
- EC50 [1]: > 10 µM
- IC50 [2]: > 50 µM
- Activity (Influenza B virus): inactive
- Activity (Vaccinia virus): inactive
- IC50 [3]: > 50 µM
- IC50 [4]: > 50 µM
- Activity [5]: inactive
- Activity (Feline coronavirus): inactive
- Activity (Influenza A virus): inactive
- Activity [6]: inactive
- Ratio IC50 [7]: 10
- Activity (Punta Toro virus): inactive
- Activity (Influenza A virus H3N2): inactive
- Activity (Human respirovirus 3): inactive
- Activity (Sindbis virus): inactive
- Activity [8]: inactive
- Activity (Human alphaherpesvirus 1): inactive
- solubility [9]: soluble
- Activity (Human alphaherpesvirus 2): inactive
- Activity (Human alphaherpesvirus 3): inactive
- IC50 [10]: > 50 µM
- IC50 [11]: 11.1 µM
- IC50 [12]: > 50 µM
- inhibition [13]: Dose-dependent effect
- IC50 [14]: > 50 µM
- CC50 at 72 h [15]: 40 µM

Structure (SMILES): O=C(OC1C=CC(n2ccc(=O)n(Cc3ccccc3)c2=O)C1)c1ccccc1 (racemic)
- Activity (Coxsackievirus B4): inactive
- EC50 [1]: > 10 µM
- IC50 [2]: > 50 µM
- Activity (Influenza B virus): inactive
- Activity (Vaccinia virus): inactive
- IC50 [3]: > 50 µM
- IC50 [4]: 33.6 µM
- Activity [5]: inactive
- Activity (Feline coronavirus): inactive
- Activity (Influenza A virus): inactive
- Activity [6]: inactive
- Activity (Punta Toro virus): inactive
- Activity (Influenza A virus H3N2): inactive
- Activity (Human respirovirus 3): inactive
- Activity (Sindbis virus): inactive
- Activity [8]: inactive
- Activity (Human alphaherpesvirus 1): inactive
- Activity (Human alphaherpesvirus 2): inactive
- Activity (Human alphaherpesvirus 3): inactive
- IC50 [10]: > 50 µM
- IC50 [11]: 1.2 µM
- IC50 [12]: 13.4 µM
- IC50 [14]: > 50 µM
- CC50 at 72 h [15]: > 25 µM

Structure (SMILES): CC(C)Nc1cccnc1N1CCN(C(=O)c2cc3cc(NS(C)(=O)=O)ccc3[nH]2)CC1 [DELAVIRDINE]
- EC50 [1]: 0.11 µM
- CC50 at 72 h [15]: > 25 µM

Structure (SMILES): O=C(OC1C=CC(n2ccc(=O)n(C(=O)c3ccccc3)c2=O)C1)c1ccccc1 (racemic)
- EC50 [1]: > 50 µM
- IC50 [12]: > 100 µM
- CC50 at 72 h [15]: ≥ 250 µM

Structure (SMILES): Cc1cc(C)cc(Cn2c(=O)cc(C)n(C3C=CC(OC(=O)c4ccccc4)C3)c2=O)c1 (racemic)
- EC50 [1]: > 10 µM
- IC50 [12]: > 50 µM
- CC50 at 72 h [15]: 25 µM

Structure (SMILES): Cc1cc(=O)n(Cc2ccccc2)c(=O)n1C1C=CC(OC(=O)c2ccccc2)C1 (racemic)
- EC50 [1]: > 10 µM
- IC50 [12]: > 50 µM
- CC50 at 72 h [15]: 34 µM

Structure (SMILES): O=C(OC1C=CC(n2ccc(=O)[nH]c2=O)C1)c1ccccc1 (racemic)
- EC50 [1]: > 250 µM
- IC50 [12]: > 100 µM
- CC50 at 72 h [15]: > 250 µM

Structure (SMILES): O=C(OC1C=CC(n2ccc(=O)n(Cc3cc(F)cc(F)c3)c2=O)C1)c1ccccc1 (racemic)
- EC50 [1]: > 10 µM
- IC50 [12]: > 50 µM
- CC50 at 72 h [15]: 32 µM

Structure (SMILES): Cc1cc(=O)[nH]c(=O)n1C1C=CC(OC(=O)c2ccccc2)C1 (racemic)
- EC50 [1]: > 50 µM
- IC50 [12]: > 100 µM
- CC50 at 72 h [15]: > 250 µM

Structure (SMILES): O=c1ccn(C2C=CC(O)C2)c(=O)n1Cc1ccccc1 (racemic)
- IC50 [12]: > 100 µM
- CC50 at 72 h [15]: > 250 µM

Structure (SMILES): Cc1ccnc2c1NC(=O)c1cccnc1N2C1CC1 [NEVIRAPINE]
- EC50 [1]: 0.024 µM
- CC50 at 72 h [15]: > 25 µM

Structure (SMILES): Cc1ccc(Cn2c(=O)ccn(C3C=CC(OC(=O)c4ccccc4)C3)c2=O)cc1 (racemic)
- Activity (Coxsackievirus B4): inactive
- EC50 [1]: > 10 µM
- IC50 [2]: > 50 µM
- Activity (Influenza B virus): inactive
- Activity (Vaccinia virus): inactive
- IC50 [3]: > 50 µM
- IC50 [4]: 55.4 µM
- Activity [5]: inactive
- Activity (Feline coronavirus): inactive
- Activity (Influenza A virus): inactive
- Activity [6]: inactive
- Activity (Punta Toro virus): inactive
- Activity (Influenza A virus H3N2): inactive
- Activity (Human respirovirus 3): inactive
- Activity (Sindbis virus): inactive
- Activity [8]: inactive
- Activity (Human alphaherpesvirus 1): inactive
- Activity (Human alphaherpesvirus 2): inactive
- Activity (Human alphaherpesvirus 3): inactive
- IC50 [10]: > 50 µM
- IC50 [11]: 2.4 µM
- IC50 [12]: 18.7 µM
- IC50 [14]: > 50 µM
- CC50 at 72 h [15]: > 25 µM

Structure (SMILES): Cc1ccc(Cn2c(=O)cc(C)n(C3C=CC(OC(=O)c4ccccc4)C3)c2=O)cc1 (racemic)
- EC50 [1]: > 10 µM
- IC50 [12]: > 50 µM
- CC50 at 72 h [15]: 20 µM

Structure (SMILES): Cc1cc(=O)n(C(=O)c2ccccc2)c(=O)n1C1C=CC(OC(=O)c2ccccc2)C1 (racemic)
- EC50 [1]: > 50 µM
- IC50 [12]: > 100 µM
- CC50 at 72 h [15]: 191 µM

Structure (SMILES): Cc1ccc(Cn2c(=O)ccn(C3C=CC(OC(=O)c4ccccc4)C3)c2=O)c(C)c1 (racemic)
- EC50 [1]: > 50 µM
- IC50 [12]: > 50 µM
- CC50 at 72 h [15]: 31 µM
